Reference: paper PMC7924852, “The Emericellipsins A–E from an Alkalophilic Fungus Emericellopsis alkalina Show Potent Activity against Multidrug-Resistant Pathogenic Fungi” (Journal of Fungi, 2021)
≈ marks a conversion by molar mass, not a printed value. Read-outs that look alike come from different tables or passages of the source. Starred links: 1 amine or outer side, 2 acyl side, 3 side chain; linkers in the order of their positions; H or OH if unused. Positions of bridges follow the written chain, without caps; N, C: chain ends. Non-standard residues stand in square brackets, D forms with d. Residues, ends and D or L forms follow the SMILES beside them. *: point of attachment. hTyr(3S-OH,4S-OH,3'-OSO3H) = N[C@H](C(=O)O)[C@H](O)[C@@H](O)c1ccc(O)c(OS(=O)(=O)O)c1; pTerphenylCO(4''-OnC5H11) = CCCCCOc1ccc(-c2ccc(-c3ccc(C(=O)*)cc3)cc2)cc1; Orn(4R-OH,5R-OH) = O=C([C@H](C[C@@H](O)[C@@H](O)N[*:3])N[*:1])[*:2]; hTyr(3S-OH,4S-OH) = N[C@H](C(=O)O)[C@H](O)[C@@H](O)c1ccc(O)cc1; Pro(3S-OH,4S-Me) = C[C@H]1CN[C@H](C(=O)O)[C@H]1O; X1 = CCCCCOc1ccc(-c2cc(-c3ccc(C(=O)*)cc3)no2)cc1; Gln(3R-OH) = NC(=O)C[C@@H](O)[C@H](N)C(=O)O; Hyp = O=C(O)[C@@H]1C[C@@H](O)CN1

Assays:
Test in all cases: Sensititre YeastOne antifungal susceptibility test
Assay type in all cases: cell-based
A. terreus 497 = settings: Aspergillus terreus
C. parapsilosis 571 = settings: Lodderomyces parapsilosis
C. krusei 1447 = settings: Pichia kudriavzevii
Cr. laurentii 325m = settings: Papiliotrema laurentii
Aspergillus niger 1133m = test system: Aspergillus niger 1133m
C. glabrata 1402 = settings: Nakaseomyces glabratus
[1] = test system: Cryptococcus neoformans 297
C. tropicalis 156 = settings: Candida tropicalis
A. fumigatus 390m = settings: Aspergillus fumigatus
Candida albicans 1402 = test system: Candida albicans 1402
[2] = Sensititre YeastOne, A. terreus 497 clinical isolate, read-out: MIC
[3] = Sensititre YeastOne, C. parapsilosis 571 clinical isolate, read-out: MIC
[4] = Sensititre YeastOne, C. krusei 1447 clinical isolate, read-out: MIC
[5] = Sensititre YeastOne, Cr. laurentii 325m clinical isolate, read-out: MIC
[6] = Sensititre YeastOne, Aspergillus niger 1133m clinical isolate, read-out: MIC
[7] = Sensititre YeastOne, C. glabrata 1402 clinical isolate, read-out: MIC
[8] = Sensititre YeastOne, Cryptococcus neoformans 297 clinical isolate, read-out: MIC
[9] = Sensititre YeastOne, C. tropicalis 156 clinical isolate, read-out: MIC
[10] = Sensititre YeastOne, A. fumigatus 390m clinical isolate, read-out: MIC
[11] = Sensititre YeastOne, Candida albicans 1402 clinical isolate, read-out: MIC

Row | Compound | MIC (A. terreus 497; [2]) [mg/L] | MIC (C. parapsilosis 571; [3]) [mg/L] | MIC (C. krusei 1447; [4]) [mg/L] | MIC (Cr. laurentii 325m; [5]) [mg/L] | MIC (Aspergillus niger 1133m; [6]) [mg/L] | MIC (C. glabrata 1402; [7]) [mg/L] | MIC [1, 8] [mg/L] | MIC (C. tropicalis 156; [9]) [mg/L] | MIC (A. fumigatus 390m; [10]) [mg/L] | MIC (Candida albicans 1402; [11]) [mg/L] | MIC (A. terreus 497; 497) [mg/L] | MIC (C. parapsilosis 571; 571) [mg/L] | MIC (C. krusei 1447; 1447) [mg/L] | MIC (Cr. laurentii 325m; 325M) [mg/L] | MIC (Aspergillus niger 1133m; Aspergillus niger, 1133M) [mg/L] | MIC (C. glabrata 1402; 1402) [mg/L] | MIC ([1]; Cryptococcus neoformans, 297) [mg/L] | MIC (C. tropicalis 156; 156) [mg/L] | MIC (A. fumigatus 390m; 390M) [mg/L] | MIC (Candida albicans 1402; Candida albicans, 1402) [mg/L]
1 | C[C@@H](c1ncncc1F)[C@](O)(Cn1cncn1)c1ccc(F)cc1F [VOR, voriconazole] | 0.25 (≈ 0.716 µM) | 1 (≈ 2.86 µM) | 1 (≈ 2.86 µM) | 0.5 (≈ 1.43 µM) | 8 (≈ 22.9 µM) | 8 (≈ 22.9 µM) | 0.25 (≈ 0.716 µM) | 4 (≈ 11.5 µM) | 0.5 (≈ 1.43 µM) | 1 (≈ 2.86 µM) | – | – | – | – | – | – | – | – | – | –
2 | CCCCCOc1ccc(-c2ccc(-c3ccc(C(=O)N[C@H]4C[C@@H](O)[C@@H](O)NC(=O)[C@@H]5[C@@H](O)[C@@H](C)CN5C(=O)[C@H]([C@@H](C)O)NC(=O)[C@H]([C@H](O)[C@@H](O)c5ccc(O)cc5)NC(=O)[C@@H]5C[C@@H](O)CN5C(=O)[C@H]([C@@H](C)O)NC4=O)cc3)cc2)cc1 [AND, anidulafungin] ({pTerphenylCO(4''-OnC5H11)}-[Orn(4R-OH,5R-OH)]T[Hyp][hTyr(3S-OH,4S-OH)]T[Pro(3S-OH,4S-Me)]; lactam 1-C) | – | – | – | – | – | – | – | – | – | – | > 8 | 2 (≈ 1.75 µM) | 0.03 (≈ 0.0263 µM) | > 8 | > 8 | 0.06 (≈ 0.0526 µM) | > 8 | 0.12 (≈ 0.105 µM) | > 8 | 0.06 (≈ 0.0526 µM)
3 | CC(=O)N1CCN(c2ccc(OCC3COC(Cn4ccnc4)(c4ccc(Cl)cc4Cl)O3)cc2)CC1 (stereo not shown) [KZ, ketoconazole] | – | – | – | – | – | – | – | – | – | – | 8 (≈ 15.1 µM) | 0.5 (≈ 0.941 µM) | 0.5 (≈ 0.941 µM) | 0.12 (≈ 0.226 µM) | 16 (≈ 30.1 µM) | 4 (≈ 7.53 µM) | 0.06 (≈ 0.113 µM) | 0.5 (≈ 0.941 µM) | 8 (≈ 15.1 µM) | 4 (≈ 7.53 µM)
4 | CCCCCOc1ccc(-c2cc(-c3ccc(C(=O)N[C@H]4C[C@@H](O)[C@@H](O)NC(=O)[C@@H]5[C@@H](O)[C@@H](C)CN5C(=O)[C@H]([C@H](O)CC(N)=O)NC(=O)[C@H]([C@H](O)[C@@H](O)c5ccc(O)c(OS(=O)(=O)O)c5)NC(=O)[C@@H]5C[C@@H](O)CN5C(=O)[C@H]([C@@H](C)O)NC4=O)cc3)no2)cc1 [MF, micafungin] (X1-[Orn(4R-OH,5R-OH)]T[Hyp][hTyr(3S-OH,4S-OH,3'-OSO3H)][Gln(3R-OH)][Pro(3S-OH,4S-Me)]; lactam 1-C) | – | – | – | – | – | – | – | – | – | – | > 8 | 1 (≈ 0.787 µM) | 0.12 (≈ 0.0945 µM) | > 8 | > 8 | 0.015 (≈ 0.0118 µM) | > 8 | 0.03 (≈ 0.0236 µM) | > 8 | 0.03 (≈ 0.0236 µM)
5 | CC[C@@H]([C@H](C)O)n1ncn(-c2ccc(N3CCN(c4ccc(OC[C@@H]5CO[C@@](Cn6cncn6)(c6ccc(F)cc6F)C5)cc4)CC3)cc2)c1=O [PZ, posaconazole] | 0.12 (≈ 0.171 µM) | 1 (≈ 1.43 µM) | 0.5 (≈ 0.713 µM) | 1 (≈ 1.43 µM) | 0.5 (≈ 0.713 µM) | > 8 | 0.25 (≈ 0.357 µM) | > 8 | 0.25 (≈ 0.357 µM) | 0.5 (≈ 0.713 µM) | – | – | – | – | – | – | – | – | – | –
6 | CCC(C)n1ncn(-c2ccc(N3CCN(c4ccc(OCC5COC(Cn6cncn6)(c6ccc(Cl)cc6Cl)O5)cc4)CC3)cc2)c1=O (stereo not shown) [IZ, itraconazole] | 0.25 (≈ 0.354 µM) | 0.5 (≈ 0.709 µM) | 0.5 (≈ 0.709 µM) | 0.12 (≈ 0.17 µM) | 1 (≈ 1.42 µM) | > 16 | 0.5 (≈ 0.709 µM) | > 16 | 0.25 (≈ 0.354 µM) | 0.5 (≈ 0.709 µM) | – | – | – | – | – | – | – | – | – | –
7 | Nc1[nH]c(=O)ncc1F [Emi 5-FC, flucytosine] | – | – | – | – | – | – | – | – | – | – | > 64 | 0.5 (≈ 3.87 µM) | 32 (≈ 248 µM) | 4 (≈ 31 µM) | > 64 | 0.06 (≈ 0.465 µM) | 8 (≈ 62 µM) | 0.06 (≈ 0.465 µM) | > 64 | 0.06 (≈ 0.465 µM)
